# Measurements: US7427608B2, “Protection against and treatment of hearing loss” (The Research Foundation of State University of New York, priority 2001, dated 2008)
# Like-named read-outs stand apart in the source and are kept apart here.
# Experiments:
# p55 fyn = p55 fyn (Homo sapiens, UniProt P06241); assay: Inhibition of p55 fyn; type: biochemical; conditions: compound at 10 micromolar
# From the text: (§1) Blanks for a particular enzyme indicate that inhibition was not found.
# [1] = molecular target: Epidermal Growth Factor Receptor Tyrosine Kinase (EGFRTK) (Homo sapiens, UniProt P00533); assay: Inhibition of EGFRTK; type: biochemical; conditions: compound at 10 micromolar
# From the text: as §1
# [2] = tested on: human lung cancer cell line H460; assay: Inhibition of growth of human lung cancer cell line H460; type: cell-based; conditions: NCI-H460, 72 hours, total protein/well
# From the text: The results are in Table 2, below.
# p56 lck = p56 lck (Homo sapiens, UniProt P06239); assay: Inhibition of p56 lck; type: biochemical; conditions: compound at 10 micromolar
# From the text: as §1
# [3] = molecular target: T1, protein tyrosine phosphatase 1B (PTP-1B) (Homo sapiens, UniProt P18031); assay: Inhibition of PTP-1B; type: biochemical; conditions: compound at 10 micromolar
# T1 sequence (P18031 1-435): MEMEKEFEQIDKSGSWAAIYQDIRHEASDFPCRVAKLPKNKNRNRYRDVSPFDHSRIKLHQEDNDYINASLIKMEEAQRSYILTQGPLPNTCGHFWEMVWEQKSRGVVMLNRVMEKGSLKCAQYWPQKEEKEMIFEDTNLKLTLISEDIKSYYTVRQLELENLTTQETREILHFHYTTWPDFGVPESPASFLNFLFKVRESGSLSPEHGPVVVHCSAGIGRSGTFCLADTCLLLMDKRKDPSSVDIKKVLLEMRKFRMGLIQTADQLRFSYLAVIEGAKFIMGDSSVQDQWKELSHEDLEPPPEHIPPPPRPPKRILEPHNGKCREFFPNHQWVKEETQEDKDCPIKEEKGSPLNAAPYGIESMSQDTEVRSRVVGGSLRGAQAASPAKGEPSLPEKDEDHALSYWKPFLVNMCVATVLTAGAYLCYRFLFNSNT
# From the text: as §1
# [4] = tested on: ovarian tumor cells (tumor N015) and abdominal carcinoma from patients; assay: Patient tumor cell culture, comparison with cancer drugs; type: cell-based, human
# From the text: The initial non-peptide Src inhibitors have also shown very encouraging results in four different series of cell culture assays. 1) In the NIH 60-tumor cell panel assay, broad activity (as one would expect for a Src inhibitor) was seen against the tumor cell lines, including the prostate lines. […] 3) The Src inhibitors were compared to the cancer drugs etoposide, taxol, doxorubicin, and cisplatin in ovarian tumors from three different patients and an abdominal carcinoma from another patient. […] 5) Two of the Src inhibitors were also tested for inhibition of ts v-Src stimulated LA25 cell growth. […] 6) Two of the Src inhibitors were also tested for inhibition of normal rat kidney cell growth.
# [5] = molecular target: full length human purified recombinant pp60^c-src (Homo sapiens, UniProt P12931); assay: Inhibition of isolated Src (Lai et al. 1998 assay, intracellular-mimetic conditions); type: biochemical
# [6] = mouse, in vivo, ip
# p56 lck, sequence (P06239 whole entry, species assumed): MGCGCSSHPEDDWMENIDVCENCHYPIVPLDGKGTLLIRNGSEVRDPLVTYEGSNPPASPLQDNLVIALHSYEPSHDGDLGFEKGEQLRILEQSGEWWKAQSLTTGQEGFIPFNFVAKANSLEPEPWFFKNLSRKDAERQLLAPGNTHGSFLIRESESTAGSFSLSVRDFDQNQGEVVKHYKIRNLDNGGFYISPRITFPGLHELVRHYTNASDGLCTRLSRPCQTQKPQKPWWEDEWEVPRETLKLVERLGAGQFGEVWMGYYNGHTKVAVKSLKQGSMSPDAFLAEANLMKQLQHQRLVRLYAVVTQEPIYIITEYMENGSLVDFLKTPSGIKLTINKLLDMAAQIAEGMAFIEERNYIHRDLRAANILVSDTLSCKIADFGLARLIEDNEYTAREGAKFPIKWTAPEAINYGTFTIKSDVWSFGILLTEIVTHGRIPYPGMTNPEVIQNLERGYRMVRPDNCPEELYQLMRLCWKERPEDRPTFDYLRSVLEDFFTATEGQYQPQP
# Epidermal Growth Factor Receptor Tyrosine Kinase (EGFRTK), sequence (P00533 25-1210): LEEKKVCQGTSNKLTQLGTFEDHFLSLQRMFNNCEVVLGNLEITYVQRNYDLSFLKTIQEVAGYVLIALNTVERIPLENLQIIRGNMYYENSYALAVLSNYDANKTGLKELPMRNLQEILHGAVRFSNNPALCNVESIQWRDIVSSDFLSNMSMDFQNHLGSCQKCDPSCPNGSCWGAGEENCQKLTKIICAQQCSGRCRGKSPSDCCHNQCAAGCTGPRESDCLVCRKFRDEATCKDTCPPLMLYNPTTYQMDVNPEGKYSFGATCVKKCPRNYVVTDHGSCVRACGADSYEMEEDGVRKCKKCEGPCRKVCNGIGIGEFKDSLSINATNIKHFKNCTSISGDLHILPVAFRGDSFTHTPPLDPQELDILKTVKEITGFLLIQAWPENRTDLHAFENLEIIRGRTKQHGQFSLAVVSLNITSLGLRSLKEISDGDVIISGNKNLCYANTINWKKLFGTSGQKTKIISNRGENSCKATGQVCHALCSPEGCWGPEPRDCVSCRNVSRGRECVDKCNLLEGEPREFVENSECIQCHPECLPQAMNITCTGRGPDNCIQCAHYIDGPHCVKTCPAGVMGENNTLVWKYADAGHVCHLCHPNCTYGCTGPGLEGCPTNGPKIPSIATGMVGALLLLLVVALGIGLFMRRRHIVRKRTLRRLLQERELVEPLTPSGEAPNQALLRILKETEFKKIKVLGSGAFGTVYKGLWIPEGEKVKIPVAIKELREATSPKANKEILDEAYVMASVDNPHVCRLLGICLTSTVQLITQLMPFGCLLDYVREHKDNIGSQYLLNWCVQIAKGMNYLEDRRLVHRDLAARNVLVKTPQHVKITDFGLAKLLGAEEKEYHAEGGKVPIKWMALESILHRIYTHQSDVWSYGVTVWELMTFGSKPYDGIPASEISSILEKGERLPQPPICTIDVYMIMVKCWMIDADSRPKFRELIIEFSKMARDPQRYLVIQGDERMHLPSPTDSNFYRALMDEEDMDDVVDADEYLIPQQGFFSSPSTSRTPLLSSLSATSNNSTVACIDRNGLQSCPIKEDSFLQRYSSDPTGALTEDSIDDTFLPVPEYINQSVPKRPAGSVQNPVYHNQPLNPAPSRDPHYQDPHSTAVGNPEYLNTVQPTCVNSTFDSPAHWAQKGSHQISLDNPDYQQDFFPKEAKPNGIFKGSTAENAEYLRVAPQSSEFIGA
# full length human purified recombinant pp60^c-src, sequence (P12931 whole entry): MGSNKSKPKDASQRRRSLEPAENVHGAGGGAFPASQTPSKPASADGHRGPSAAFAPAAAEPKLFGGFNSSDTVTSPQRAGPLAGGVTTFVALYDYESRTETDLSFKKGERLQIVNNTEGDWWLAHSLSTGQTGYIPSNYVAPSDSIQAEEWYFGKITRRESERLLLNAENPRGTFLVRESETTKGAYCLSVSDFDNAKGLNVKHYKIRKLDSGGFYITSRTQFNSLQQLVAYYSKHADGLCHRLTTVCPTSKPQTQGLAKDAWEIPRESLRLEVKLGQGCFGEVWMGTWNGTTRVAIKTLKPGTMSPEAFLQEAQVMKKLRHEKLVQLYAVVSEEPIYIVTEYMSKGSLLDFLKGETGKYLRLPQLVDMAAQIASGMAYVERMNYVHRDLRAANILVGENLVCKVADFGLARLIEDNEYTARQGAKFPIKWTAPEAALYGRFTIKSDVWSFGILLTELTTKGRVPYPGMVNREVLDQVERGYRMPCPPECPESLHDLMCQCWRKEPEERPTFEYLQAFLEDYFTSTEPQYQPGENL
# p55 fyn, sequence (P06241 whole entry): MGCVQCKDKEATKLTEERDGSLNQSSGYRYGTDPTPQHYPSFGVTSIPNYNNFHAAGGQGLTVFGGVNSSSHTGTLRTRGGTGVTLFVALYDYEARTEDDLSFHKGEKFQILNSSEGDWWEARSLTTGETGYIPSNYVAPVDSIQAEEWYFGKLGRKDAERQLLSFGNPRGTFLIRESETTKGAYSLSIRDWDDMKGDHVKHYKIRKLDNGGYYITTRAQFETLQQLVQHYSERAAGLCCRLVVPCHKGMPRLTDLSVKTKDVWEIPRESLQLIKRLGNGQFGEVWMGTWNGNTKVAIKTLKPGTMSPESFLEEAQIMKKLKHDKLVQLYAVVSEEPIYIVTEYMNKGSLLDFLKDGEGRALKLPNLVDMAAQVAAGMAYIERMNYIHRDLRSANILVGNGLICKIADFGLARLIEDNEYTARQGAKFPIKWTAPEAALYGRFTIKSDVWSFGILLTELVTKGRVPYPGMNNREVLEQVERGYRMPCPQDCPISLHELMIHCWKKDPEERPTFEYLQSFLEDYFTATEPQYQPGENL
inhibition at 10 µM (p55 fyn) [%],inhibition at 10 µM [1] [%],Compound,also measured
19,,CCCN(CCC)C(=O)c1cc2cc(F)ccc2[nH]1 [Compound 1g],
,33,O=C(NCc1ccc(CO)cc1)c1cc2cc(F)ccc2[nH]1 [Compound 1oooo],IC50 [2]: 74 ± 2.7 µM; inhibition at 10 µM (p56 lck): 10%
,,O=C(NCc1ccc(Cl)cc1Cl)c1cc2cc(F)ccc2[nH]1 [Compound 1ss],inhibition at 10 µM [3]: 12%
,26,O=C(NCc1cccc(F)c1)c1cc2cc(F)ccc2[nH]1 [Compound 1z],IC50 [2]: 15 ± 1.6 µM
,19,O=C(N[C@H](c1ccccc1)[C@H](O)c1ccccc1)c1cc2cc(F)ccc2[nH]1 [Compound 1cc],IC50 [2]: 30 ± 0.66 µM
,19,O=C(NCc1ccccc1)c1cc2cc(F)ccc2[nH]1 [Compound 1bb],IC50 [2]: 82 ± 3.5 µM
,16,COc1ccc(CNC(=O)c2cc3cc(F)ccc3[nH]2)cc1 [Compound 1ee],
14,,O=C(NCc1cc(F)cc(C(F)(F)F)c1)c1cc2cc(F)ccc2[nH]1 [Compound 1mmm],
,,O=C(NCc1ccc(OCc2ccccc2)c(O)c1)c1cc2cc(F)ccc2[nH]1 [Compound 1jjjj],inhibition at 10 µM [3]: 15%
,23,CCCOc1ccc(NC(=O)c2[nH]c3ccc(F)cc3c2-c2ccccc2)cc1CO [Compound 2d],
,,O=C(Nc1ccccc1O)c1cc2cc(F)ccc2[nH]1 [Compound 1n],inhibition at 10 µM (p56 lck): 12%
,24,O=C(NCc1cccc(I)c1)c1cc2cc(F)ccc2[nH]1 [Compound 1ff],
11,17,CCCOc1ccc(CNC(=O)c2cc3cc(F)ccc3[nH]2)cc1O [Compound 1nnnn],
11,,COc1cc(CNC(=O)c2cc3cc(F)ccc3[nH]2)ccc1OCc1ccccc1 [Compound 1qqq],
15,,O=C(NCc1ccc(Cl)cc1)c1cc2cc(F)ccc2[nH]1 [Compound 1rrr],
,,O=C(NCc1ccc(Cl)cc1)c1[nH]c2ccc(F)cc2c1-c1ccccc1 [Compound 2gg],inhibition at 10 µM [3]: 12%
11,18,COc1ccc(NC(=O)c2[nH]c3ccc(F)cc3c2-c2ccccc2)cc1CO [Compound 2f],IC50 [2]: 13 ± 0.46 µM
,25,O=C(NCc1ccc(O)c(O)c1)c1cc2cc(F)ccc2[nH]1 [Compound 1gggg],
,,COc1cccc2c1C(=O)c1c(O)c3c(c(O)c1C2=O)C[C@@](O)(C(=O)CO)C[C@@H]3O[C@H]1C[C@H](N)[C@H](O)[C@H](C)O1 [doxorubicin],efficacy relative to other cancer drugs in tumor cell culture [4]: more effective than etoposide and cisplatin
,,COc1cc(OC)c(CNC(=O)c2cc3cc(F)ccc3[nH]2)c(OC)c1 [Compound 1rr],inhibition at 10 µM (p56 lck): 12%

inhibition at 10 µM (p55 fyn) [%],inhibition at 10 µM [1] [%],Compound,also measured
,11,O=C(Nc1cccc(CO)c1)c1cc2cc(F)ccc2[nH]1 [Compound 1yyy],IC50 [2]: 104 ± 10 µM
13,,O=C(Nc1ccc(Oc2ccccc2)cc1)c1cc2cc(F)ccc2[nH]1 [Compound 1k],
,41,O=C(N[C@@H](c1ccccc1)[C@@H](O)c1ccccc1)c1cc2cc(F)ccc2[nH]1 [Compound 1dd],IC50 [2]: 33 ± 0.78 µM
29,,O=C(NCc1ccc([N+](=O)[O-])cc1)c1cc2cc(F)ccc2[nH]1 [Compound 1mmmm],
12,,O=C(NCc1ccccc1Cl)c1cc2cc(F)ccc2[nH]1 [Compound 1yy],inhibition at 10 µM [3]: 10%
,12,O=C(NCc1cc(OCc2ccccc2)cc(OCc2ccccc2)c1)c1cc2cc(F)ccc2[nH]1 [Compound 1iiii],
24,,O=C(NCc1ccc([N+](=O)[O-])cc1)c1[nH]c2ccc(F)cc2c1-c1ccccc1 [Compound 2kk],
,19,COc1ccc(NC(=O)c2cc3cc(F)ccc3[nH]2)cc1CO [Compound 1cccc],IC50 [2]: > 100 µM; inhibition at 10 µM [3]: 20%
,,O=C(NCc1cc(C(F)(F)F)cc(C(F)(F)F)c1)c1[nH]c2ccc(F)cc2c1-c1ccccc1 [Compound 2w],inhibition at 10 µM [3]: 12%
16,,O=C(NCc1ccc(F)cc1)c1cc2cc(F)ccc2[nH]1 [Compound 1uuu],inhibition at 10 µM [3]: 13%
18,,O=C(NCc1cccc(C(F)(F)F)c1)c1cc2cc(F)ccc2[nH]1 [Compound 1jj],
,20,O=C(NCc1cc(F)cc(F)c1)c1[nH]c2ccc(F)cc2c1-c1ccccc1 [Compound 2y],
,,O=C(Nc1ccccc1CO)c1cc2cc(F)ccc2[nH]1 [Compound 1xxx],inhibition at 10 µM [3]: 12%
,20,O=C(NCc1ccc(C(F)(F)F)cc1)c1[nH]c2ccc(F)cc2c1-c1ccccc1 [Compound 2j],
,,O=C(NCc1cccc(F)c1)c1[nH]c2ccc(F)cc2c1-c1ccccc1 [Compound 2g],IC50 [2]: 13 ± 0.56 µM
,,O=C(Nc1cccc(O)c1)c1cc2ccc(O)cc2cc1O [Compound 2f],"IC50 ([5]; Example 3 hydroxynaphthalene series, 200 μM ATP, read-out: IC50): 16 µM"
,,CC(=O)O[C@H]1C(=O)[C@@]2(C)[C@H]([C@H](OC(=O)c3ccccc3)[C@]3(O)C[C@H](OC(=O)[C@H](O)[C@@H](NC(=O)c4ccccc4)c4ccccc4)C(C)=C1C3(C)C)[C@]1(OC(C)=O)CO[C@@H]1C[C@@H]2O [taxol],efficacy relative to other cancer drugs in tumor cell culture [4]: more effective than etoposide and cisplatin
,,O=C(NCc1cc(C(F)(F)F)ccc1F)c1cc2cc(F)ccc2[nH]1 [Compound 1aaa],inhibition at 10 µM [3]: 12%
11,,Cc1cc(C)cc(NC(=O)c2cc3cc(F)ccc3[nH]2)c1 [Compound 1t],
13,19,O=C(NCC1(O)CCCCC1)c1[nH]c2ccc(F)cc2c1-c1ccccc1 [Compound 2b],

inhibition at 10 µM (p55 fyn) [%],inhibition at 10 µM [1] [%],Compound,also measured
12,,O=C(NCc1ccc(F)cc1Cl)c1[nH]c2ccc(F)cc2c1-c1ccccc1 [Compound 2o],
,,O=C(NCc1cc(O)cc(OCc2ccccc2)c1)c1cc2cc(F)ccc2[nH]1 [Compound 1dddd],inhibition at 10 µM [3]: 16%
,10,O=C(Nc1ccc(OCc2ccccc2)c(CO)c1)c1[nH]c2ccc(F)cc2c1-c1ccccc1 [Compound 2e],
,12,O=C(NCc1ccc(F)cc1C(F)(F)F)c1[nH]c2ccc(F)cc2c1-c1ccccc1 [Compound 2hh],
11,33,O=C(NCc1ccccc1F)c1[nH]c2ccc(F)cc2c1-c1ccccc1 [Compound 2s],IC50 [2]: 26 ± 0.34 µM; inhibition at 10 µM (p56 lck): 10%
,,"N=c1oc2c(O)cccc2cc1C(=O)Nc1cccc(O)c1 [Iminochromene 9TA, iminochromene 9TA, reference compound]","% Inhibition at 100 μM (std. dev.) ([5]; Example 3 hydroxynaphthalene series and published inhibitors, 100 μM inhibitor, 198 μM ATP): 30 (+/−15) %"
,12,Cc1ccccc1CNC(=O)c1cc2cc(F)ccc2[nH]1 [Compound 1ffff],
,,O=C(NCc1ccccc1F)c1cc2cc(F)ccc2[nH]1 [Compound 1bbb],IC50 [2]: > 100 µM
,,O=C(NCc1cccc(O)c1)c1cc2cc(F)ccc2[nH]1 [Compound 1a],"toxicity in mice (weight loss), MTD study [6]: less toxic in mice than compound 2k from Example 4; IC50 ([5]; column head: Src at 100 μM, read-out: Src IC50): 40 µM; IC50 [2]: 35 ± 0.59 µM"
,10,O=C(NCc1cc(Br)ccc1F)c1[nH]c2ccc(F)cc2c1-c1ccccc1 [Compound 2ll],
10,12,COc1cccc([C@H](C)NC(=O)c2cc3cc(F)ccc3[nH]2)c1 [Compound 1aa],
,,COc1cc(CNC(=O)c2cc3cc(F)ccc3[nH]2)cc(OC)c1 [Compound 1hhhh],inhibition at 10 µM [3]: 17%
,18,O=C(NCCCCCCO)c1cc2cc(F)ccc2[nH]1 [Compound 1qqqq],
,30,O=C(NCc1ccc(Br)cc1)c1cc2cc(F)ccc2[nH]1 [Compound 1kkkk],
14,,Cc1cccc(Cl)c1CNC(=O)c1cc2cc(F)ccc2[nH]1 [Compound 1xx],
17,,O=C(Nc1ccc(CO)cc1)c1cc2cc(F)ccc2[nH]1 [Compound 1oo],
,,O=C(Nc1cc(O)cc(O)c1)c1cc2cc(F)ccc2[nH]1 [Compound 1r],inhibition at 10 µM (p56 lck): 11%
,,O=C(NCc1cccc(O)c1)c1[nH]c2ccc(F)cc2c1-c1ccccc1 [Compound 3q],IC50 [2]: 30 ± 0.34 µM
10,,O=C(NCCc1c[nH]c2ccccc12)c1cc2cc(F)ccc2[nH]1 [Compound 1u],
10,,O=C(c1cc2cc(F)ccc2[nH]1)N1CCOCC1 [Compound 1w],
